These results are taken from patent US9981972B2, “N-hydroxy bicyclic hydantoin carbamates as tools for identification of serine hydrolase targets” (ABIDE THERAPEUTICS, INC., priority 2014, dated 2018).

In test [1] the target is T1, ABHD4 (Homo sapiens, UniProt Q8TB40).
T1 sequence (Q8TB40 1-342): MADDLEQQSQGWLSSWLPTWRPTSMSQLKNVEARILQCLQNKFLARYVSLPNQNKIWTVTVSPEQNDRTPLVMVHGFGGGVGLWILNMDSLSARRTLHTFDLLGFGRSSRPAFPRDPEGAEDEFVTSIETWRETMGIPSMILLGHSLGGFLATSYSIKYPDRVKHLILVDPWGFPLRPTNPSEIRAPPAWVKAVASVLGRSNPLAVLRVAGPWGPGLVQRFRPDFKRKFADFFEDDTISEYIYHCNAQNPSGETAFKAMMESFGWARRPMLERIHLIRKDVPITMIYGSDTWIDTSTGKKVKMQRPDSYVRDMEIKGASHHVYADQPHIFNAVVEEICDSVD
Put plainly: Gel-based competitive ABPP, recombinant enzyme in transfected HEK293T cell lysates. The class given is biochemical. On the set-up: myc-his; expressed in transfected cells; host or cells: HEK293T, transient transfection, pcDNA3.1/myc-his; lysate used in vitro. Particulars: competitive ABPP with FP-Rh, 30 min 37° C. As for the experimental part:
(§1) HEK293T cells were seeded at 2×10^5 per well on 6 well plates and grown for 48 h. They were then transfected with mABHD3 (pCMV-Sport6), hABHD4 (pcDNA3.1/myc-his), hPPT1 (pCMV6-XL5), or hPPT1 S115A (pCMV6-XL5), by incubating 0.5 μg of DNA with 3 μL of PEI MAX (1 mg/mL, Polysciences, Inc) in serum-free DMEM for 30 min, then adding them to cells. After 48 h cells were either treated with compound in situ, as described above, or harvested for in vitro studies. The […] PPT1 mutation was introduced using QuikChange II Site Directed Mutagenesis Kit (Agilent) with the following primers: […]
Human ABHD3 and ABHD4 were recombinantly expressed by transient transfection in HEK293T cells, and the cell lysates were combined to provide a convenient assay for monitor inhibition of both enzymes by gel-based ABPP (see FIG. 8A). […]

For test [2], the system named is PPT1 (wild type, S115A). Put plainly: Labeling of recombinant PPT1 by probes (gel-based ABPP, isoTOP-ABPP). The class given is biochemical, human. Particulars: transfected HEK293T lysates, CuAAC to azide-Rh, PNGaseF. As for the experimental part:
as §1
(§2) Whole cell lysates (500 μL, 1.5 mg/mL) of hPPT1 transfected HEK239Ts were processed for MS analysis using the previously described isoTOP-ABPP protocol (Weerapana et al., Nature 468, 790-795, 2010). In brief, for analysis of Compound 39-modified peptides, proteomes were split into two fractions, to which Compound 39 (5 μM, 60 min) or DMSO were added. […] MS1 peaks for probe-labeled quantified peptides were extracted with Xcalibur Qual Browser 2.2 (Thermo Scientific). […]
(§3) HEK293T cells were transfected with wild type and an S115A mutant of PPT1, lysed, and treated with Compound 39 followed by CuAAC conjugation to an azide-Rh tag, PNGaseF treatment, and analysis by SDS-PAGE. […] S115 was identified as the site of Compound 39 labeling on PPT1 using a quantitative MS method termed isoTOP-ABPP. […]

In test [3] the target is T2, PPT1 (wild type, S115A) (Homo sapiens, UniProt P50897).
T2 construct: expressed in transfected cells; host or cells: HEK293T
The description is as above. The class given is biochemical. As to conditions: transfected HEK293T cell lysates, gel-based ABPP. As for the experimental part:
as §1, §2, §3

In test [4] the test system is SHs in PC3 cell proteomes. Put plainly: Probe-versus-probe ABPP-SILAC, PC3 proteomes. The class given is biochemical, human. Particulars: Compound 39 5 μM, 1 h versus FP-biotin 2.5 μM. As for the experimental part:
Isotopically heavy- and light-labeled PC3 cells were treated with Compound 37 (1 μM) or DMSO for 4 h, respectively, lysed, and then treated Compound 39 (5 μM, 1 h). […] Among the handful of additional SH targets of Compound 37 were ABHD6 and PLA2G7, which were expected based on our ABPP-SILAC studies with FP-biotin (see FIG. 9), and protein-palmitoyl thioesterase 1 (PPT1), which was inhibited by more than 90%. […] Accordingly, PPT1 was not detected in our previous ABPP-SILAC studies with FP-biotin (see FIG. 9). The selective enrichment of PPT1 by Compound 39 was confirmed by performing a probe-versus-probe ABPP-SILAC study, where heavy and light PC3 proteomes were treated with FP-biotin (2.5 μM, 1 h) and Compound 39 (5 μM, 1 h), respectively. PPT1, along with two additional SHs LIPA and DDHD2, were preferentially enriched by Compound 39 over FP-biotin, while most of the other SHs were more strongly enriched by FP-biotin (see FIG. 13). A handful of SHs corresponding mostly to enzymes that were identified in our ABPP-SILAC studies as targets of Compound 37 (see FIGS. 9 and 12), were equivalently enriched by Compound 39 and FP-biotin (see FIG. 13).

“Also recorded” adds a separate entry of the source.

T2 sequence (P50897 28-306 S115A): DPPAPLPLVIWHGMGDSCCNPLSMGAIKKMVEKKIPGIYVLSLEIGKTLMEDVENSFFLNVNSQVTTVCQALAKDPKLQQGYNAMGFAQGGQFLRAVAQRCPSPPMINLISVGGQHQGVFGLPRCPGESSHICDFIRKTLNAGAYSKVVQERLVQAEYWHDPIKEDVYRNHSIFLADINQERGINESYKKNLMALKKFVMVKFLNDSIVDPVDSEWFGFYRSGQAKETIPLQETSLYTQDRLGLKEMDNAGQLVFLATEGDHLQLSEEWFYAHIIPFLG

On to `C#CCOc1ccc(N2CCN(C(=O)ON3C(=O)C4CN(Cc5ccc(Oc6ccccc6)cc5)CCN4C3=O)CC2)cc1` (stereo not shown) [Compound 39, 1,3-dioxo-7-(4-phenoxybenzyl)hexahydroimidazo[1,5-a]pyrazin-2(3H)-yl 4-(4-(prop-2-yn-1-yloxy)phenyl)piperazine-1-carboxylate], for which the “inhibition of ABHD4 in transfected HEK293T cell proteome” value in test [1] is on record as “inhibited ABHD4 in transfected HEK293T cell proteome in a concentration-dependent manner”. The “labeling of wild type PPT1 versus S115A mutant” value in test [2] is “labels recombinant wild type PPT1, but not the catalytic serine mutant (S115A); also recorded: strong labeling of wild-type PPT1, but not the S115A mutant”. For the same compound, the “probe reactivity with recombinant hPPT1” value in test [3] is given as “reacts; also recorded: reacted with PPT1”. Moreover, the “SHs preferentially enriched by Compound 39 over FP-biotin” value in test [4] was “PPT1 and LIPA and DDHD2”.
